# Publication PMC11823630, “In vitro potentiation of tetracyclines in Pseudomonas aeruginosa by RW01, a new cyclic peptide” (Antimicrobial Agents and Chemotherapy, 2024)
# Read-outs that look alike come from different tables or passages of the source.
# Assays:
# P. aeruginosa 125A = assay: MIC, CLSI broth microdilution in BD Phoenix AST Broth; assay type: cell-based, Pseudomonas aeruginosa; details: strain 125A
# P. aeruginosa 125B = assay: as above; assay type: cell-based, Pseudomonas aeruginosa; details: strain 125B
# P. aeruginosa 41A = assay: as above; assay type: cell-based, Pseudomonas aeruginosa; details: strain 41A
# P. aeruginosa 41B = assay: as above; assay type: cell-based, Pseudomonas aeruginosa; details: strain 41B
# P. aeruginosa PAO1 = assay: as above; assay type: cell-based, Pseudomonas aeruginosa; details: for MIC: Pseudomonas aeruginosa
# P. aeruginosa PAOUW = assay: as above; assay type: cell-based, Pseudomonas aeruginosa; details: strain PAOUW; for MIC: agent alone, 37°C, 18–22 h, three biological replicates
# P. aeruginosa PAOUW∆oprF = assay: as above; assay type: cell-based, Pseudomonas aeruginosa
# P. aeruginosa PAOΔmexR = assay: as above; assay type: cell-based, Pseudomonas aeruginosa; details: strain PAOΔmexR
# P. aeruginosa PAOΔmexZ = assay: as above; assay type: cell-based, Pseudomonas aeruginosa; details: strain PAOΔmexZ; for MIC: agent alone, 37°C, 18–22 h, three biological replicates
# P. aeruginosa PAOΔoprM = assay: as above; assay type: cell-based, Pseudomonas aeruginosa
# P. aeruginosa PAO1, WT = assay: MIC, E-test on MHA; assay type: cell-based; details: Pseudomonas aeruginosa, PAO1, read-out: MIC, E-test
# [1] = tested on: PAO1 mutant MIN1_RW01_1, pmrB(Y98N); assay: MIC, E-test on MHA; assay type: cell-based; details: Pseudomonas aeruginosa, PAO1, read-out: MIC, E-test
# [2] = tested on: PAO1 mutant MIN1_RW01_3, pmrB(V215L); assay: MIC, E-test on MHA; assay type: cell-based; details: Pseudomonas aeruginosa, PAO1, read-out: MIC, E-test
# [3] = tested on: PAO1 mutant MIN2_RW01_1, pmrB(V215L); assay: MIC, E-test on MHA; assay type: cell-based; details: Pseudomonas aeruginosa, PAO1, read-out: MIC, E-test
# [4] = tested on: PAO1 mutant MIN2_RW01_2, pmrB(M292T); assay: MIC, E-test on MHA; assay type: cell-based; details: Pseudomonas aeruginosa, PAO1, read-out: MIC, E-test
# [5] = tested on: PAO1 mutant MIN2_RW01_3, parS(V152A); assay: MIC, E-test on MHA; assay type: cell-based; details: Pseudomonas aeruginosa, PAO1, read-out: MIC, E-test
# [6] = tested on: PAO1 mutant MIN4_RW01_2, pmrB(F124S); assay: MIC, E-test on MHA; assay type: cell-based; details: Pseudomonas aeruginosa, PAO1, read-out: MIC, E-test
# [7] = tested on: PAO1 mutant MIN4_RW01_3, pmrB(M292T); assay: MIC, E-test on MHA; assay type: cell-based; details: Pseudomonas aeruginosa, PAO1, read-out: MIC, E-test
# [8] = tested on: PAO1 mutant MIN4_RW01_4, pmrB(Y98N); assay: MIC, E-test on MHA; assay type: cell-based; details: Pseudomonas aeruginosa, PAO1, read-out: MIC, E-test
# [9] = tested on: PAO1 mutant MIN8_1, nalD(R3C), pilM(Q62X); assay: MIC, E-test on MHA; assay type: cell-based; details: Pseudomonas aeruginosa, PAO1, read-out: MIC, E-test
# [10] = tested on: PAO1 mutant MIN8_2, pilZ(nt18InsT); assay: MIC, E-test on MHA; assay type: cell-based; details: Pseudomonas aeruginosa, PAO1, read-out: MIC, E-test
# [11] = tested on: PAO1 mutant MIN16_1, nalD(T43P); assay: MIC, E-test on MHA; assay type: cell-based; details: Pseudomonas aeruginosa, PAO1, read-out: MIC, E-test
# [12] = tested on: PAO1 mutant MIN16_2, nalC(aa9∆4), pilQ(nt46∆1); assay: MIC, E-test on MHA; assay type: cell-based; details: Pseudomonas aeruginosa, PAO1, read-out: MIC, E-test
# [13] = tested on: PAO1 mutant MIN16_3, nfxB(nt79∆14), pilB(N349K); assay: MIC, E-test on MHA; assay type: cell-based; details: Pseudomonas aeruginosa, PAO1, read-out: MIC, E-test
# [14] = tested on: PAO1 mutant MIN16_4, nalC(T50P), pilM(Q62X); assay: MIC, E-test on MHA; assay type: cell-based; details: Pseudomonas aeruginosa, PAO1, read-out: MIC, E-test
# [15] = Pseudomonas aeruginosa, agent alone, 37°C, 18–22 h, three biological replicates
# [16] = MIC of the antibiotic with fixed 100 mg/L RW01
# [17] = antibiotic MIC alone vs with RW01 100 mg/L
# [18] = antibiotic with RW01 at 100 mg/L
# [19] = strain PAO1, antibiotic with RW01 at 100 mg/L
# [20] = strain PAOUWΔoprF (printed PAOΔoprF), antibiotic with RW01 at 100 mg/L
# [21] = strain PAOΔoprM, antibiotic with RW01 at 100 mg/L
structure (smiles),measurement,setting,value
"CN(C)c1cc(NC(=O)CNC(C)(C)C)c(O)c2c1C[C@H]1C[C@H]3[C@H](N(C)C)C(O)=C(C(N)=O)C(=O)[C@@]3(O)C(O)=C1C2=O [Tigecycline, tigecycline]",MIC,P. aeruginosa 125A; [15],8 µg/mL
same,Antibiotic MIC + RW01 100 mg/L,P. aeruginosa 125A; [16],1 µg/mL
same,Potentiation (fold),P. aeruginosa 125A; [17],8 fold
same,FICI,P. aeruginosa 125A; [18],0.320
same,FICI-determined effect,P. aeruginosa 125A; [18],Synergy (synergistic effect if FICI is ≤0.5)
same,MIC,P. aeruginosa 125B; [15],8 µg/mL
same,Antibiotic MIC + RW01 100 mg/L,P. aeruginosa 125B; [16],1 µg/mL
same,Potentiation (fold),P. aeruginosa 125B; [17],8 fold
same,FICI,P. aeruginosa 125B; [18],0.320
same,FICI-determined effect,P. aeruginosa 125B; [18],Synergy (synergistic effect if FICI is ≤0.5)
same,MIC,P. aeruginosa 41A; [15],8 µg/mL
same,Antibiotic MIC + RW01 100 mg/L,P. aeruginosa 41A; [16],2 µg/mL
same,Potentiation (fold),P. aeruginosa 41A; [17],4 fold
same,FICI,P. aeruginosa 41A; [18],0.348
same,FICI-determined effect,P. aeruginosa 41A; [18],Synergy (synergistic effect if FICI is ≤0.5)
same,MIC,P. aeruginosa 41B; [15],8 µg/mL
same,Antibiotic MIC + RW01 100 mg/L,P. aeruginosa 41B; [16],2 µg/mL
same,Potentiation (fold),P. aeruginosa 41B; [17],4 fold
same,FICI,P. aeruginosa 41B; [18],0.348
same,FICI-determined effect,P. aeruginosa 41B; [18],Synergy (synergistic effect if FICI is ≤0.5)
same,MIC,P. aeruginosa PAO1; PAO1,8 µg/mL
same,MIC,"P. aeruginosa PAO1; PAO1, strain PAO1, agent alone, 37°C, 18–22 h, three biological replicates, read-out: MIC",2 µg/mL
same,Antibiotic MIC + RW01 100 mg/L,"P. aeruginosa PAO1; strain PAO1, MIC of the antibiotic with fixed 100 mg/L RW01",2 µg/mL
same,Potentiation (fold),"P. aeruginosa PAO1; strain PAO1, antibiotic MIC alone vs with RW01 100 mg/L",4 fold
same,FICI,P. aeruginosa PAO1; [19],0.445
same,FICI-determined effect,P. aeruginosa PAO1; [19],Synergy (synergistic effect if FICI is ≤0.5)
same,MIC,"P. aeruginosa PAOUW; Pseudomonas aeruginosa, read-out: MIC",8 µg/mL
same,Antibiotic MIC + RW01 100 mg/L,P. aeruginosa PAOUW; [16],1 µg/mL
same,MIC,P. aeruginosa PAOUW,4 µg/mL
same,Potentiation (fold),P. aeruginosa PAOUW; [17],4 fold
same,FICI,P. aeruginosa PAOUW; [18],0.348
same,FICI-determined effect,P. aeruginosa PAOUW; [18],Synergy (synergistic effect if FICI is ≤0.5)
same,Potentiation (fold),"P. aeruginosa PAOUW∆oprF; strain PAOUWΔoprF (printed PAOΔoprF), antibiotic MIC alone vs with RW01 100 mg/L",8 fold
same,FICI,P. aeruginosa PAOUW∆oprF; [20],0.223
same,FICI-determined effect,P. aeruginosa PAOUW∆oprF; [20],Synergy (synergistic effect if FICI is ≤0.5)
same,MIC,"P. aeruginosa PAOUW∆oprF; strain PAOUWΔoprF, agent alone, 37°C, 18–22 h, three biological replicates",16 µg/mL
same,Antibiotic MIC + RW01 100 mg/L,P. aeruginosa PAOΔmexR; [16],1 µg/mL
same,Potentiation (fold),P. aeruginosa PAOΔmexR; [17],8 fold
same,FICI,P. aeruginosa PAOΔmexR; [18],0.223
same,FICI-determined effect,P. aeruginosa PAOΔmexR; [18],Synergy (synergistic effect if FICI is ≤0.5)
same,MIC,P. aeruginosa PAOΔmexZ; Pseudomonas aeruginosa,16 µg/mL
same,MIC,P. aeruginosa PAOΔmexZ,8 µg/mL
same,Potentiation (fold),P. aeruginosa PAOΔmexZ; [17],8 fold
same,FICI,P. aeruginosa PAOΔmexZ; [18],0.223
same,FICI-determined effect,P. aeruginosa PAOΔmexZ; [18],Synergy (synergistic effect if FICI is ≤0.5)
same,MIC,P. aeruginosa PAOΔoprM; Pseudomonas aeruginosa,1 µg/mL
same,Antibiotic MIC + RW01 100 mg/L,"P. aeruginosa PAOΔoprM; strain PAOΔoprM, MIC of the antibiotic with fixed 100 mg/L RW01",1 µg/mL
same,Potentiation (fold),"P. aeruginosa PAOΔoprM; strain PAOΔoprM, antibiotic MIC alone vs with RW01 100 mg/L",1 fold
same,FICI,P. aeruginosa PAOΔoprM; [21],1.098
same,FICI-determined effect,P. aeruginosa PAOΔoprM; [21],Indifference (indifferent effect if 1.0 < FICI ≤ 2.0)
same,MIC,"P. aeruginosa PAO1, WT",6 to 8 µg/mL
same,MIC,[1],24 µg/mL
same,MIC,[2],16 µg/mL
same,MIC,[3],24 µg/mL
same,MIC,[4],16 µg/mL
same,MIC,[5],48 µg/mL
same,MIC,[6],16 µg/mL
same,MIC,[7],32 µg/mL
same,MIC,[8],32 µg/mL
same,MIC,[9],32 µg/mL
same,MIC,[10],32 µg/mL
same,MIC,[11],16 µg/mL
same,MIC,[12],32 µg/mL
same,MIC,[13],48 µg/mL
same,MIC,[14],16 µg/mL
